The text below walks through data of patent publication US11883426B2, “Treatment for methamphetamine cardiovascular disease” (priority 2020, dated 2024).

The structures appear in SMILES notation. Counter-ions that a name gives are not always drawn.

Data set [1] can be described thus: Sulfide release with Sugammadex in human plasma. The settings on record: human blood. The protocol: (§1) . Free sulfide was measured using 50 μl of plasma with MBB; whereas for detection of ALS and BSS, 50 μl of plasma was added separately into two sets of 4 mL BD vacutainer tubes. […]. Following a 30-min incubation on a nutator, the reaction liquid was removed, and the evolved sulfide gas subsequently trapped by adding 500 μl of 100 mM Tris-HCl buffer (pH 9.5, 0.1 mM DTPA) into the BD vacutainer tube and incubated again for 30 min on a nutator mixer. […]. Determination of ALS was made by reacting plasma samples with acidic phosphate buffer alone and subsequent trapping of evolved sulfide. Measurement of BSS was determined by subtracting the acid labile value from the total sulfide protocol containing TCEP reductant treatment under acidic conditions. […]

The nature of data set [2]: Sulfide release with Sugammadex in WT and CSE knockout mice. It is filed as in vivo, mouse. The settings on record: single injection 0.2 mg/kg. The procedure: . Free sulfide was measured using 50 μl of plasma with MBB; whereas for detection of ALS and BSS, 50 μl of plasma was added separately into two sets of 4 mL BD vacutainer tubes. […]. Following a 30-min incubation on a nutator, the reaction liquid was removed, and the evolved sulfide gas subsequently trapped by adding 500 μl of 100 mM Tris-HCl buffer (pH 9.5, 0.1 mM DTPA) into the BD vacutainer tube and incubated again for 30 min on a nutator mixer. […]. Determination of ALS was made by reacting plasma samples with acidic phosphate buffer alone and subsequent trapping of evolved sulfide. Measurement of BSS was determined by subtracting the acid labile value from the total sulfide protocol containing TCEP reductant treatment under acidic conditions. […].
In clinical practice, sugammadex is administered at a dose of 4 mg/kg to up to 16 mg/kg for its current use. In the inventors' mice studies, the inventors used a single injection of 0.2 mg/kg for pharmacokinetic studies, which was a 20 to 80 times lower than the clinical usage of sugammadex.

Data set [3] has as its target T1, CSE (Homo sapiens, UniProt P32929). Put plainly: CSE activity with Sugammadex in human plasma. On the set-up: from tissue; host or cells: human blood plasma (lithium heparin). The procedure: (§2) 2.9 Cystathionine γ-lyase (CSE) activity measurement: CSE activity was measured as previously reported. Plasma or tissue lysates were incubated with 2 mM cystathionine, 0.25 mM pyridoxal 5′-phosphate in 100 mM Tris-HCl buffer (pH 8.3) for 60 min at 37° C. 10% Trichloroacetic acid was added into reaction mixture. After centrifugation, the supernatant was mixed with 1% ninhydrin reagent and incubated for 5 min in a boiling-water bath. After heating, the solution was cooled on ice for 2 minutes and color reaction development measured 20 minutes at 455 nm using a spectrophotometer (Biotek). CSE activity was assessed by cystathionine consumption and enzyme activity expressed as fold change calculated from nanomoles of cystathionine consumed per mg of total protein per hour of incubation.

The subject of data set [4] is NO. Put plainly: NO metabolite measurements in mouse plasma and skeletal muscle. It is filed as in vivo.
In data set [5] the test system is H2S. It is filed as in vivo, mouse.
Data set [6] concerns CSE, p-eNOS and total eNOS. Put plainly: Western blot of mouse skeletal muscle. Particulars: methamphetamine treated mice. It is filed as in vivo. The procedure:
(§3) 2.4 ‘Binge and crash’ mouse methamphetamine model: Twelve-week-old male WT (C57BL6/J) male mice were used for these experiments. Mice were exposed to methamphetamine according to a known protocol that models binge methamphetamine exposure in humans. C57BL/6 male mice received 0-6 mg/kg methamphetamine (Methamphetamine HCl, Sigma-Aldrich, St. Louis, Mo.) through subcutaneous (s.c.) injection five days in a week for four weeks. Methamphetamine was dissolved in a sterile saline (Sigma-Aldrich) solution (0.9% w/v NaCl). Vehicle treated mice received the same volume of saline at all-time points for four weeks. Briefly, methamphetamine-exposed and saline-control mice were injected subcutaneously with methamphetamine or saline in a volume of 5 ml/kg with an insulin syringe. Alternating sites of injection were used to avoid any possible damage to tissue and possible stress of the animal. The dose of methamphetamine was escalated over the course of the first cycle, which occurs during the first week of injections (days 1-5) followed by three weeks of repeated cycles of meth injections (days 8-12, 15-19, and 22-26). Mice received 4 injections per day, 2 hours apart with doses of meth including 0, 1, 2, 3, 4, 5, and 6 mg/kg subcutaneously. At the end of the 4 weeks, mice were sacrificed by isoflurane overdose, plasma and tissue were harvested.
2.10 Western blot analysis: Mouse skeletal muscle tissues were homogenized in a solution containing 50 mM Tris buffer (pH 7.4), 2 mM EDTA, 5 mM EGTA, 0.1% SDS, a protease inhibitor cocktail (Roche, Indianapolis, Ind.), and phosphatase inhibitor cocktail type I and II (Sigma, Saint Louis, Mo.). Homogenates were centrifuged at 500×g for 15 min and supernatants were collected. Protein concentrations were analyzed using the Bradford protein assay (BIORAD, Hercules, Calif.). […] Chemiluminescent bands were detected and quantified using NIH Image J software.
A general note: Immunoblotting shows a protein as a band on a membrane.

Data set [7] has as its system skeletal muscle tissue. It is filed as in vivo, mouse.
Data set [8] relates to H2S. Put plainly: Sulfide pools in plasma of human methamphetamine users. The settings on record: methamphetamine-users vs age matched healthy controls. The procedure: 2.6 Human blood collection: Human subjects were interviewed, and medical record data were collected for analysis of methamphetamine-use. Blood samples were collected from already-established catheterization into 6 mL BD vacutainer tubes with lithium heparin. Samples were transported to the lab within 15 min on ice and were centrifuged at 1500 RCF for 4 min at 4° C.
as §1

For data set [9], the system named is NO. The data set can be described thus: Total NO in plasma of human methamphetamine users. The settings on record: methamphetamine-users vs healthy controls.
The test system of data set [10] is superoxide. Put plainly: Oxidative stress measurement (DHE staining) in skeletal muscle. It is filed as in vivo, mouse. Particulars: skeletal muscle sections, methamphetamine vs saline. The protocol: as §3, with “The dose of methamphetamine was escalated over the course of the first cycle, which occurs during the first week of injections (days 1-5) followed by three weeks of repeated cycles of meth injections (days 8-12, 15-19, and 22-26). Mice received 4 injections per day, 2 hours apart with doses of meth including 0, 1, 2, 3, 4, 5, and 6 mg/kg subcutaneously. At the end of the 4 weeks, mice were sacrificed by isoflurane overdose, plasma and tissue were harvested.” left out
2.12 Oxidative Stress measurement: Levels of oxidative stress were measured by staining skeletal muscle tissue sections with 5 μM Dihydroethidium (DHE; Sigma-Aldrich, CA USA) and visualized using a NIKON ECLIPSE Ti-E microscope (Nikon Instruments Inc., Melville, N.Y.) for image acquisition. […]

Data set [11] has as its system femoral artery. The settings on record: mouse, in vivo.
Data set [12] concerns CSE. It is filed as in vivo, mouse. The settings on record: skeletal muscle tissues of methamphetamine treated mice.
The target of data set [13] is T1, CSE. The data set can be described thus: CSE enzyme activity in endothelial cells. It is filed as cell-based. The settings on record: HUVECs, 100 μM, 30 min, vs PBS control. On the set-up: host or cells: HUVEC. The procedure:
2.2 Cell culture and treatments: Human umbilical vein endothelial cells (HUVECs) were purchased from Lifeline Cell Technology (Cat. No. FC-0044) and cultured in VascuLife® Basal Medium (Cat. No. LM-0002) supplemented with the appropriate LifeFactors® Kit (No. LL-0003). All cells were grown in tissue culture flasks at 37° C. and 5% CO2. HUVECs from passages 2-4 were used in the experiments.
as §2

Setting [14] is: 4-week binge and crash methamphetamine.
Setting [15] is: 4-week binge and crash methamphetamine vs controls.
Where [16] appears, read: skeletal muscle, methamphetamine treated mice.
Setting [17] is: skeletal muscle, methamphetamine treatment.

T1 sequence (P32929 whole entry): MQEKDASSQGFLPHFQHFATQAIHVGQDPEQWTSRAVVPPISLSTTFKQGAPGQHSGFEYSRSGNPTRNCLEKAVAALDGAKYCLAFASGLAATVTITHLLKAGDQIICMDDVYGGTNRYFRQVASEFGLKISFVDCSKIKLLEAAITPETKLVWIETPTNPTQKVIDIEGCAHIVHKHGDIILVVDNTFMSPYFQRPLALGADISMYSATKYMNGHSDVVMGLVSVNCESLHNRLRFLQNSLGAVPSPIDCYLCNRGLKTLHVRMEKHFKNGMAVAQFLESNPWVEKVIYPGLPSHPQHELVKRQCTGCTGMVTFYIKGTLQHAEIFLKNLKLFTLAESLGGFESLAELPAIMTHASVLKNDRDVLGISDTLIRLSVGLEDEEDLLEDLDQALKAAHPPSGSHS

As for `O=C([O-])CCSC[C@@H]1OC2O[C@@H]3[C@@H](O)[C@H](O)C(O[C@@H]4[C@@H](O)[C@H](O)C(O[C@@H]5[C@@H](O)[C@H](O)C(O[C@@H]6[C@@H](O)[C@H](O)C(O[C@@H]7[C@@H](O)[C@H](O)C(O[C@@H]8[C@@H](O)[C@H](O)C(O[C@@H]9[C@@H](O)[C@H](O)C(O[C@@H]1[C@@H](O)[C@@H]2O)O[C@H]9CSCCC(=O)[O-])O[C@H]8CSCCC(=O)[O-])O[C@H]7CSCCC(=O)O)O[C@H]6CSCCC(=O)O)O[C@H]5CSCCC(=O)O)O[C@H]4CSCCC(=O)[O-])O[C@H]3CSCCC(=O)[O-].[Na+].[Na+].[Na+].[Na+].[Na+]` [Sugammadex], in data set [1], the bound sulfane sulfur result is on record as “increases” and the total sulfide levels result is “increases”. The plasma sulfide levels entry in data set [2] (CSE knockout mice) is on record as “increases”. Further, in data set [2] (wild type mice), the plasma sulfide levels entry is “increases”. Also, the “plasma CSE activity” value in data set [3] is reported as “increased”.
`CN[C@@H](C)Cc1ccccc1` [methamphetamine, Methamphetamine hydrochloride]: in data set [4] (setting [14]), the “plasma S-nitrosothiol (bound pool)” value is listed as “decreased”, the plasma free nitrite result is listed as “decreased” and the “plasma total NO levels” value was “two-fold reduction”. The “skeletal muscle total NO” value in data set [4] (methamphetamine treated mice vs saline) was “significantly reduced”. In addition, the “reduction in plasma total sulfide” value in data set [5] (setting [14]) is on record as 3 fold. In data set [5] (setting [15]), the plasma acid-labile sulfide entry was “significant reduction” and the “plasma bound sulfane sulfur” value is “significant reduction”. In data set [6], the CSE protein expression result is reported as “decreased expressions”, the p-eNOS protein expression result is recorded as “decreased expressions” and the “total eNOS protein” value is reported as “no change”. Besides, in data set [7] (methamphetamine treated mice), the eNOS expression result was “no change”. Besides, in [7] (setting [16]), the CBS gene expression entry was “no significant changes” and the CSE gene expression result is reported as “significantly decreased”. For the same compound, in [7] (setting [17]), the ICAM-1 expression result was “concomitant increase” and the VCAM-1 expression entry is given as “concomitant increase”. Moreover, the NOx4 expression result in data set [7] (skeletal muscles, methamphetamine treatment) is “marginal increase”. In data set [8], the acid-labile sulfide levels result was “decrease”. For the same compound, the “total NO levels” value in [9] is reported as “trend of decreasing”. Besides, in data set [10], the “DHE fluorescence (oxidative stress)” value is given as “significant increase”. In [11], the “flow mediated vasodilation responses” value is given as “significantly blunted” and the “mean blood flow velocity recovery after occlusion removal” value is “significantly blunts”. In addition, in data set [12], the CSE activity entry is reported as “significant decrease”. Besides, the CSE enzyme activity entry in [13] is given as “substantially decreased”.
